“And” between values parts separate entries of the source, which are not always exact repeats. Equal entries are not always repeated.
Tested on: 324938-238-R-J1-PDC complex spheroid growth, % test/control
Test: Anticancer human tumor 324938-238-R-J1-PDC patient-derived bladder carcinoma cell line growth inhibition [AhR]
Conditions: for viability, T/C: stronger effect = lower value
Procedure, shortened: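 Spheroids combined tumor cells with HUVEC endothelial cells and human MSCs as stroma. AhR antagonists were paired with standard or investigational drugs, each dosed in half-log steps down from near clinical Cmax, or from 10 microM where Cmax was unknown.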
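Note: spheroids exposed to agents for seven days before viability read.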

`CC(C)CC(NC(=O)C(Cc1ccccc1)NC(=O)c1cnccn1)B(O)O` (stereo not given) + Cc1cncc(-c2nc(NCCc3c[nH]c4ccccc34)c3ncn(C(C)C)c3n2)c1 was tested, and the IC50 (curve of first compound, second compound 0.1 µM) was 4.75 nM, the IC50 (curve of first compound, second compound 0.316 µM) was 4.16 nM and the IC50 (curve of first compound, second compound 1 µM) was 4.21 nM. For the same compound, the IC50 (curve of first compound, second compound 3.16 µM) was 4.41 nM, the IC50 (curve of first compound, second compound 10 µM) was under 0.949 nM and the viability, T/C (second compound 0.1 µM, first compound 0.000949 µM) was 140%. The viability, T/C (second compound 0.1 µM, first compound 0.003 µM) was 82.9%, the viability, T/C (second compound 0.1 µM, first compound 0.00949 µM) was 0.38% and the viability, T/C (second compound 0.1 µM, first compound 0.03 µM) was 0.6%. The viability, T/C (second compound 0.1 µM, first compound 0.0949 µM) was 0.37%, the viability, T/C (second compound 0.1 µM, first compound 0.3 µM) was 0.39% and the viability, T/C (second compound 0.316 µM, first compound 0.000949 µM) was 123%. For the same compound, the viability, T/C (second compound 0.316 µM, first compound 0.003 µM) was 69.4%, the viability, T/C (second compound 0.316 µM, first compound 0.00949 µM) was 0.83% and the viability, T/C (second compound 0.316 µM, first compound 0.03 µM) was 2.26%. For the same compound, the viability, T/C (second compound 0.316 µM, first compound 0.0949 µM) was 1.05%, the viability, T/C (second compound 0.316 µM, first compound 0.3 µM) was 0.73% and the viability, T/C (second compound 1 µM, first compound 0.000949 µM) was 107%. It also gave a viability, T/C (second compound 1 µM, first compound 0.003 µM) of 70.6%, a viability, T/C (second compound 1 µM, first compound 0.00949 µM) of 0.67% and a viability, T/C (second compound 1 µM, first compound 0.03 µM) of 0.27%. It also gave a viability, T/C (second compound 1 µM, first compound 0.0949 µM) of 0.57%, a viability, T/C (second compound 1 µM, first compound 0.3 µM) of 0.35% and a viability, T/C (second compound 3.16 µM, first compound 0.000949 µM) of 109%. It also gave a viability, T/C (second compound 3.16 µM, first compound 0.003 µM) of 74.3%, a viability, T/C (second compound 3.16 µM, first compound 0.00949 µM) of 1.45% and a viability, T/C (second compound 3.16 µM, first compound 0.03 µM) of 0.48%. It also gave a viability, T/C (second compound 3.16 µM, first compound 0.0949 µM) of 0.28%, a viability, T/C (second compound 3.16 µM, first compound 0.3 µM) of 0.4% and a viability, T/C (second compound 10 µM, first compound 0.000949 µM) of 5.75%. It also gave a viability, T/C (second compound 10 µM, first compound 0.003 µM) of 2.91%, a viability, T/C (second compound 10 µM, first compound 0.00949 µM) of 1.36% and a viability, T/C (second compound 10 µM, first compound 0.03 µM) of 0.48%. It also gave a viability, T/C (second compound 10 µM, first compound 0.0949 µM) of 0.49% and a viability, T/C (second compound 10 µM, first compound 0.3 µM) of 0.42%.

With `CCc1c2c(nc3ccc(O)cc13)-c1cc3c(c(=O)n1C2)COC(=O)[C@]3(O)CC` the viability, T/C (compound 0.000949 µM) was 80.8% and 57.3% and 38.8%, the viability, T/C (compound 0.003 µM) was 71% and 52.4% and 28.9% and the viability, T/C (compound 0.00949 µM) was 70.2% and 18.2% and 19%. The viability, T/C (compound 0.03 µM) was 90.4% and 15.3% and 17.9%, the viability, T/C (compound 0.0949 µM) was 78.3% and 16.9% and 17% and the viability, T/C (compound 0.3 µM) was 69.4% and 14.9% and 15.4%.

In the case of `Nc1ncn(C2CC(O)C(CO)O2)c(=O)n1` (stereo not given), the viability, T/C (compound 0.00316 µM) is reported as 69.8% and 99.6% and 102%, the viability, T/C (compound 0.01 µM) is reported as 96.2% and 113% and 94.2% and the viability, T/C (compound 0.0316 µM) is reported as 82.3% and 98.6% and 85.2%. For the same compound, the viability, T/C (compound 0.1 µM) was 83.7% and 98.3% and 96.2%, the viability, T/C (compound 0.316 µM) was 128% and 80.2% and 81.7% and the viability, T/C (compound 1 µM) was 92.8% and 72% and 68.3%. For the same compound, the IC50 (curve of compound) was over 1000 nM.

`CC(C)c1c(-c2ccccc2)nc2c(C#N)c[nH]n2c1=O` was tested, and the viability, T/C (compound 0.0316 µM) was 136% and 101% and 102%, the viability, T/C (compound 0.1 µM) was 74.3% and 108% and 99% and the viability, T/C (compound 0.316 µM) was 70.3% and 96.4% and 99.4%. For the same compound, the viability, T/C (compound 1 µM) was 80.5% and 97.2% and 86.3%, the viability, T/C (compound 3.16 µM) was 181% and 93.4% and 97.5% and the viability, T/C (compound 10 µM) was 99.3% and 77.3% and 90.8%. It also gave an IC50 (curve of compound) of over 10000 nM.

Reference: PubChem BioAssay AID1918995 (Molecular Pharmacology Branch, DTP, NCI, 2023)
